Results as given in patent publication US20070043108A1, “Use of equol for ameliorating or preventing neuropsychiatric and neurodegenerative diseases or disorders” (priority 2002, published 2007).
Where “and” joins values, the source holds several entries; their conditions need not be identical. Equal values may be shown once.

Key:
[1] = test system: GDX males; test: Examples 5 and 6: gonadectomized (GDX) male rats treated with DHTP, equol or both; histology; assay type: in vivo, rat
Method: One week following arrival, animals are gonadectomized (GDX) under isoflurane anesthesia and allowed to recover for 7 days. Following recovery, animals are assigned to the following groups 1) DMSO, 2) DHTP (2 mg/1 kg), 3) racemic equol (0.25 mg/kg), or 4) both DHTP and racemic equol. Injections are given subcutaneously daily for 4 days. Animals are killed via decapitation and trunk blood and tissues are collected for analysis.
Tissues, including prostate, testes and epididymis, are removed from the animal, dissected free of fat and connective tissues, weighed, fixed by immersion in 4% paraformaldehyde, and then sectioned at 15 μm on a cryostat. Tissue sections are mounted on charged slides (Superfrost Plus, Fisher Scientific, Pittsburgh, Pa.) prewarmed to 23° C., and stained with hematoxylin and eosin (H&E), dehydrated in ascending alcohol and cleared with xylene.

[2] = test system: Adult male Sprague-Dawley rats; test: Example 3: prostate, epididymis and body weight gain in male rats treated with racemic, R- or S-equol; assay type: in vivo, rat; conditions: 0.25 mg/kg/day sc, seven days
Method: Adult male Sprague-Dawley rats are randomly assigned to […] groups and receive daily injections of either DMSO, a racemic mixture of equol at 0.250 mg/kg/day), R-equol at 0.250 mg/kg/day, or S-equol at 0.250 mg/kg/day. The total volume of each injection is 0.3 cc, administered sc at the nape of the rat's neck. After seven consecutive days of treatment, the rats are killed and the body weight gain during the injection period is determined.

[3] = target: T1, ERα (Rattus norvegicus, UniProt P06211); test: Competition binding of equol enantiomers with [3H]E2 for in vitro translated ERα
T1 construct: Full length rat ERα expression vector (pcDNA-ERα; RH Price UCSF); made in house; host or cells: TnT-coupled rabbit reticulocyte lysate in vitro translation (Promega)
T1 sequence (P06211 1-600): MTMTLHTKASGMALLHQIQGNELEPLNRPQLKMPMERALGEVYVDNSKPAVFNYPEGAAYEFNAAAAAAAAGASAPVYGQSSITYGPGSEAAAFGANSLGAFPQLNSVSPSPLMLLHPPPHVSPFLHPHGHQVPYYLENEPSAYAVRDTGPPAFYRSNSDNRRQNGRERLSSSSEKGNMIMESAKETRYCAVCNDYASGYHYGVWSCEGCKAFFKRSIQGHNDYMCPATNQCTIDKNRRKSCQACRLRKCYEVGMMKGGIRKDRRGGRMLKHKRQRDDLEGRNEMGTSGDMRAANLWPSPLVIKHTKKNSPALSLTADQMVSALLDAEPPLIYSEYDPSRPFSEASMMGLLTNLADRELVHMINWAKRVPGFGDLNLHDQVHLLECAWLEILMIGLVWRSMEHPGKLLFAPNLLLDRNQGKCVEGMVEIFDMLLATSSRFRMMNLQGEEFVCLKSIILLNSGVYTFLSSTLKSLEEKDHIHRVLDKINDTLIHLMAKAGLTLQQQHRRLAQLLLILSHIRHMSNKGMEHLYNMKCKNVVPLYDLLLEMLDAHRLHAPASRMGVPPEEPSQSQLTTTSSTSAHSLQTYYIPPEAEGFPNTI
Method: (§1) In vitro binding studies were performed to examine the relative affinities of S— and R-enantiomeric equol with the estrogen receptors ERα and ERβ.
(§2) Synthesis of Hormone Receptor Proteins: Full length rat ERα expression vector (pcDNA-ERα; RH Price UCSF) and ERβ expression vector (pcDNA-ERβ; T A Brown, Pfizer, Groton, […].) were used to synthesize hormone receptors in vitro using the TnT-coupled reticulocyte lysate system (Promega, Madison, Wis.) with T7-RNA polymerase, during a 90 min reaction at 30° C. Translation reaction mixtures were stored at −80° C. until further use.
(§3) Saturation isotherms: In order to calculate and establish the binding affinity of the S-equol and R-equol enantiomers for ERα and ERβ, 100 μL aliquots of reticulocyte lysate supernatant were incubated at optimal time and temperature; 90 min at room temperature (ERβ) and 18 hrs at 4° C. (ERα), with increasing (0.01-100 nm) concentrations of [3H] […] These times were determined empirically and represent optimal binding of receptor with estrogen. Nonspecific binding was assessed using a 300-fold excess of the ER agonist diethylstilbestrol, in parallel tubes. Following incubation, bound and unbound [3H]E2 were separated by passing the incubation reaction through a 1 mL lipophilic Sephadex LH-20 (Sigma-Aldrich Co., Saint Louis, Mo.) column Columns were constructed by packing a disposable pipette tip (1 mL; Labcraft, Curtin Matheson Scientific, Inc, Houston, Tex.) with TEGMD (10 mm Tris-Cl, 1.5 mm EDTA, 10% glycerol, 25 mm molybdate, and 1 mm dithiothreitol, pH 7.4)-saturated Sephadex according to previously published protocols (Wanda et al., 1986; O'Keefe and Handa, 1990). For chromatography, the columns were re-equilibrated with TEGMD (100 μL), and the incubation reactions were added individually to each column and allowed to incubate on the column for an additional 30 min. Following this incubation, 600 μL of TEGMD were added to each column, flow-through was collected, 4 mL scintillation fluid was added, and samples were counted (5 min each) in an 2900 TR Packard scintillation counter (Packard Bioscience, Meriden, Conn.).
(§4) Competition binding studies were used to assess the estrogenic properties of equol's S-equol and R-equol enantiomers. Based on the ability of S and R to compete with [3H]

[4] = target: T2, AR (Rattus norvegicus, UniProt P15207); test: Binding to the androgen receptor (prostate supernatant, [3H]DHT)
T2 construct: incubated with prostate supernatant and then passed through the 30 cm column; from tissue; host or cells: prostate supernatant
T2 sequence (P15207 1-902): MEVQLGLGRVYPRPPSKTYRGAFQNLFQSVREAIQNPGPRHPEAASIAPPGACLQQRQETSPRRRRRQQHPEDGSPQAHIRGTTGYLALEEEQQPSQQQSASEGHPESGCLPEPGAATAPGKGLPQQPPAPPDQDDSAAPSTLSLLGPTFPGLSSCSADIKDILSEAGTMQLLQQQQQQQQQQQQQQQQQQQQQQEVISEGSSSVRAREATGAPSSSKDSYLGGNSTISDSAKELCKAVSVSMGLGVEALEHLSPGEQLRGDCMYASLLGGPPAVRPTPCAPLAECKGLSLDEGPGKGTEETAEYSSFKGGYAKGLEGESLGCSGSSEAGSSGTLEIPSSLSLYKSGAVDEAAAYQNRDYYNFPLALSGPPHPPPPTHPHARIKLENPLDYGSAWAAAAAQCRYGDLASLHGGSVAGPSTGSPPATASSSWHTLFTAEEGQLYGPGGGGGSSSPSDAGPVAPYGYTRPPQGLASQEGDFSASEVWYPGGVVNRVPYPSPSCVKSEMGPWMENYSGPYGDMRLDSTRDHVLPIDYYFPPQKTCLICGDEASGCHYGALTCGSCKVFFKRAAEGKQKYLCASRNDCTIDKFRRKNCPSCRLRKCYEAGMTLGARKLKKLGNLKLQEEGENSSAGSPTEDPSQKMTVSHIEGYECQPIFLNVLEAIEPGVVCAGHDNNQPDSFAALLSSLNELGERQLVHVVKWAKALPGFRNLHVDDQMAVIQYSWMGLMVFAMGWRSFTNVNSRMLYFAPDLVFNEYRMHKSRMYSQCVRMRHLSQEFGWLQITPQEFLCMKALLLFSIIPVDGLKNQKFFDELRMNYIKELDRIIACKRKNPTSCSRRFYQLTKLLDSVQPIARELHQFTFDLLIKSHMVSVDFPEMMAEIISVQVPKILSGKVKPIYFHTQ

[5] = test system: Adult male Sprague-Dawley rats; test: Example 15: elevated plus maze of equol injected male rats; assay type: in vivo, rat; conditions: 0.250 mg/Kg/day sc, seven days, n = 8
Source text: The elevated plus maze is a behavioral test used to quantify anxiety-related behavior and identify anxiolytic drugs (Pellow S. et al., J Neurosci Methods, 14:149-147 (1985); Current Protocols In Neuroscience (1997) 8.3.1-8.3.15, John Wiley & Sons. NY, N.Y.). The test relies on the inherent conflict between exploration of a novel environment and avoidance of its aversive features. Normally, animals spend little time and make few entries into the open arms of the maze compared to the closed arms of the maze (Imhof J. T. et al., Behav Brain Res, 56:177-180 (1993). However, animals treated with anxiolytics, such as benzodiazepines (valium), spend more time in the open arms and the number of entries into the open arms reflects a decrease in anxiety-related behaviors (Pellow S. et al., J Neurosci Methods, 14:149-147 (1985); Current Protocols In Neuroscience (1997) 8.3.1-8.3.15, John Wiley & Sons. NY, N.Y.; Chopin P. et al., Psychopharm, 110:409-414 (1993).
Adult male Sprague-Dawley rats receive daily injections of either DMSO, racemic equol (0.250 mg/Kg/day), R-equol (0.250 mg/Kg/day), or S-equol (0.250 mg/Kg/day) in a total volume of 0.3 cc DMSO by subcutaneous injection. At the end of seven consecutive days of treatment the animals are tested in the elevated plus maze in order to quantify anxiety-related behaviors.

[6] = target: T3, ERβ (Rattus norvegicus, UniProt Q62986); test: Competition binding of equol enantiomers with [3H]E2 for in vitro translated ERβ
T3 construct: Full length rat ERα expression vector (pcDNA-ERα; RH Price UCSF) and ERβ expression vector (pcDNA-ERβ; T A Brown, Pfizer; made in house; host or cells: TnT-coupled rabbit reticulocyte lysate in vitro translation (Promega)
T3 sequence (Q62986 whole entry): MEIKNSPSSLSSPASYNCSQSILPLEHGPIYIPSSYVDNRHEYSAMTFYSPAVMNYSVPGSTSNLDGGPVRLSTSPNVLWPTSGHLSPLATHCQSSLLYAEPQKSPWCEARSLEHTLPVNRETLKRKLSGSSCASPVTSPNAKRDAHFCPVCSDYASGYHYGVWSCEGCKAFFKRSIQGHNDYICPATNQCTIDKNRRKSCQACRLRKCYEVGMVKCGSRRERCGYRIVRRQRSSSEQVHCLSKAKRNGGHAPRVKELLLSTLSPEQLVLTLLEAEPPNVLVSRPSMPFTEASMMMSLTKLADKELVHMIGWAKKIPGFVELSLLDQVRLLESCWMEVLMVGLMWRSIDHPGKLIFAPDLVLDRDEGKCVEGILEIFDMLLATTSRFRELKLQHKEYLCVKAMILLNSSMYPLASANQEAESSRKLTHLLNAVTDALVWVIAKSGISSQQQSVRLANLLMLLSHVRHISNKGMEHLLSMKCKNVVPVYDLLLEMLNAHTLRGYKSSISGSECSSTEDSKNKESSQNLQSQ
Method: as §1, §2, §3, §4

[7] = test system: Long-Evans rats, male offspring; test: Example 19: elevated plus maze of adult male offspring after pre- and early postnatal treatment; assay type: in vivo, rat
Method: Pregnant Long-Evans rats were treated via daily subcutaneous injections from gestational day 14 through 20 and during lactation from postnatal day 2 through 25 with: 1) control-DMSO vehicle or, 2) genistein@ 3 mg/day or 3) equol@ 3 mg/day according to the treatment groups. All animals were fed a phytoestrogen-low diet throughout these studies (10 ppm isoflavones). There were no significant differences in maternal body weights just before birth among the treatment groups. […] The maternal and male offspring genistein and equol levels @ 25 days post birth) paralleled that of the treatments administered.
At approximately 90 days of age the male offspring were tested by treatments (control, genistein and equol) in the EPM that was video-taped for 3 minutes and later recorded for the number of entries into—and the percentage of total time spent—on the open arms, as previously described. […] Equol time intervals were 2-fold greater than genistein values and genistein levels were approximately 9-fold greater than controls.

[8] = competition with [3H]E2, in vitro translated ER
[9] = 3 mg/day sc to dams, offspring tested at about 90 days

CCC(=O)O[C@H]1CC[C@H]2[C@@H]3CC[C@H]4CC(=O)CC[C@]4(C)[C@H]3CC[C@]12C [DHTP, DHT propionate, reference compound]
LH ([1]; GDX males, given alone, vs DMSO): significantly decreased
prostate weight ([1]; GDX males, given alone, vs vehicle-treated GDX): significant increase
plasma 5α-DHT ([1]; GDX, DHTP 2 mg/kg sc daily for 4 days): significant elevations

Oc1ccc([C@H]2COc3cc(O)ccc3C2)cc1 [S-equol]
Body Wt Gain (g) [2]: 56.1 (±3.1) g
Epididymis (g) [2]: 0.86 (±0.05) g
Prostate (g) [2]: 0.35 (±0.03) g
relative binding affinity for ERα compared with 17β-estradiol, fold less [3]: 49.2 fold and 49 fold
Kd [3, 8]: 6410 ± 1010 pM
binding to the androgen receptor [4]: does not bind the androgen receptor
Center Area [5]: 27.5 ± 4.1 s
Open Arm Time [5]: 33.6 ± 7.0 s
affinity for ERβ, fold less [6]: approximately 5 fold
binding to ERβ relative to that of 17β-estradiol [6]: approximately 20%
Kd ([6]; as stated in the background section): 700 pM
Kd [6, 8]: 730 ± 200 pM

O=c1c(-c2ccc(O)cc2)coc2cc(O)cc(O)c12 [genistein]
body weights at birth vs controls ([7]; 3 mg/day sc to dams from gestational day 14): slightly (but not significantly) higher
entries into the open arms vs controls [7, 9]: not significantly different
time in the open arms vs controls [7, 9]: significantly greater
open arm time intervals, fold greater than controls ([7]; offspring tested at about 90 days): approximately 9 fold
